Source: patent US10780094B2, “Use of carbonic anhydrase inhibitors for treatment of neurological and psychiatric disorders” (New York University, priority 2016, dated 2020)

Key:
SH-SY5Y neuronal cells = assay: TMRM assay of mitochondrial membrane potential (ΔΨ); format: cell-based, human; settings: for ΔΨ after pre-aggregated Aβ: any of the used concentrations, 45 minutes
Experimental: (§1) Briefly, cells were plated on 25 mm optical borosilicate poly-L-lysine-coated sterile glass covers (ThermoFisher, Waltham, Mass., US) at a 70% confluence. The day after, cells were washed twice with HBSS and charged with 600 nM TMRM on HBSS. Cells were then incubated for 20 min in the incubator, at 37° C. and washed again with HBSS. After that, the medium was replaced by HBSS containing 150 nM of tetramethylrhodamine methyl ester (TMRM), in order to maintain the equilibrium distribution of the fluorophore. Cells were then mounted on Sykes-Moores chambers (BellCo, Vineland, N.J., US) and treated with the different drugs and/or peptides. An image was taken at minute 0 and at minute 45, after adding the drugs and/or peptides. In this experiment, the peptide was pre-aggregated as above before adding it to the cells.

[1] = tested on: D3 cerebral microvascular endothelial cells; assay: as above; format: cell-based, human; settings: for ΔΨ after pre-aggregated Aβ: any of the used concentrations, 45 minutes
Experimental: as §1

M059K Glioma cells = assay: Cell Death ELISAplus, Aβ-induced apoptosis (fragmented nucleosomes); format: cell-based, human; settings: for apoptosis in response to Aβ: Example 2, glial cells, FIG. 17C
Experimental: The extent of apoptosis caused by Aβ in the presence or absence of MTZ was assessed by quantitation of nucleosome formation using Cell Death ELISA^plus (Roche Applied Science, Indianapolis, Ind.). Briefly, after incubation with the peptides, plates were centrifuged in a Beckman J-6B centrifuge (10 min; 1,000 rpm), cells lysed, and DNA-histone complexes (nucleosomes) quantitated by Cell Death ELISA, as previously described (Fossati et al., 2010).

[2] = tested on: caspase 9 in SH-SY5Y neuronal cells; assay: Caspase-Glo 9 activity after Aβ challenge; format: cell-based, human; settings: for caspase 9 activation: Example 2/3, FIG. 16C, 22
Experimental: Caspase 9 and caspase 3/7 activation was measured by luminescent assays (Caspase-Glo 9 and caspase-Glo 3/7, Promega, Madison, Wis.), in cells treated with the Aβ peptides in DMEM without FBS. Briefly, 10,000 cells/well were plated in 96 wells plates and incubated for 24 hours with the freshly solubilized Aβ peptides. Caspase-Glo reagent was added to the cell cultures resulting in cell lysis, followed by caspase cleavage of the substrate and generation of a luminescent signal produced by the luciferase reaction. After 40 minutes incubation, the amount of caspase activity was evaluated in a plate-reading luminometer (Synergy HT Multi-Mode Microplate Reader, Biotek, Winooski, Vt.) as described in (Fossati et al., 2012b). To inhibit non-specific background activity, the proteasome inhibitor MG-132 was added to the Caspase-Glo reagent before the experiment as indicated by the manufacturer. In all cases results are expressed as fold-change compared to untreated control cells.
Cells were plated at a confluence of 10.000 cells per well in 96-wells microplate luminescence microtiter (ThermoFisher, Waltham, Mass., US). The day after, cells were treated with the peptides and/or drugs for the experimental times. After that, caspase-Glo 9 assay was performed, following the protocol provided from the manufacturer. Luminescence was measured using a FlexStation 3 Multi-Mode Microplate Reader (Molecular devices, Sunnyvalem Calif., US).

TgSwDI mice = assay: Barnes Maze spatial memory testing; format: in vivo, mouse; settings: for behavioral phenotypes (Barnes maze): given with diet; for distance traveled, probe trial / mistakes, probe trial: in the diet for 8 months, 15-20 mg/kg/day; for distance traveled, probe trial / mistakes, probe trial / distance traveled in trial 10 (last trial): tested at 15-16 months; for distance traveled in trial 10 (last trial): treated for 8 months
Description: The Barnes Maze was used to provide an index of spatial learning and memory. The task capitalizes on the motivation of mice to seek refuge from loud, open and brightly-lit spaces. Mice were trained across a series of trials to successfully navigate to a hidden escape chamber using information provided by distal spatial cues. The Barnes Maze consists of a relatively large (36″ in diameter), circular platform with a beige textured surface that is elevated 36″ from the floor (San Diego Instruments, San Diego USA). The platform has twenty 2″ diameter holes that are equally spaced around the periphery of the platform (1″ from the edge). A grey plastic escape box (˜10 cm×8.5 cm×4 cm) is located under only one of the holes, the location of which is constant for each subject but variable across subjects and counterbalanced across groups. The surface of the Barnes maze is brightly-lit (500-600 lux), illuminated by an overhead lamp (60-100 W) placed approximated 30″ above the center of the platform. Visible distal cues were placed around the room and remained constant throughout the testing period. An overhead video camera and specialized software (Noldus Ethovision 11.5) was used to track the locomotor trajectories of the mice. Mice were trained for six consecutive daily testing sessions (2 trials/day for 5 days, and probe test on day 6).
On each testing day, mice were brought to the testing room for a minimum of 30 mins prior to testing in order to acclimate to transport and testing room conditions. On the first day of testing, each mouse was gently removed from its home cage by the base of its tail and placed in the center of the platform and kept within an inverted 500 ml beaker for 1 min. A white noise generator (San Diego Instruments) was turned on (˜90-100 dB) when the mouse was placed onto the maze. After the 1-min period, the beaker was slowly moved (over the course of 1 min) to the target hole with the mouse freely moving but confined underneath. Care was taken not to catch the tail or paws of the mouse while moving the beaker. The mouse was then permitted, or was gently guided by the experimenter using the beaker, to enter the escape box and was given 2 min inside before being transported back to its home cage within the escape box. The white noise was turned off as soon as the mouse entered the escape box. The platform and start box were cleaned thoroughly with 30% ethanol and allowed to dry fully before each trial. To ensure that distal spatial cues rather than local intramaze cues were being used to help guide navigation to the escape box, the maze was rotated after each training trial and the escape box re-positioned to always be in the identical spatial location within the room.
After the initial beaker trial, each mouse was given 2 training trials per day. During training trials, mice were placed in the center of the platform within an plastic 6″l×6″w×8″h start box. The white noise generator was turned on and, after 10-15 s delay, the start box was lifted. The mouse was permitted a maximum of 3 min to find the designated hole and escape box. When a mouse entered the escape box the white noise was turned off and they were given approximately 1 additional min inside the box before being transferred back to the home cage. […] A 90-120 min inter-trial interval separated the two training trials on each daily session.
Twenty four hours after (Day 6) the fifth training session, a 3-min probe trial was given, conducted identically as the training trials but where the escape box had been removed. This probe was used to examine search behavior patterns and to help control for possible strategies that use local cues from the escape box.
Spatial learning and memory was inferred based on the latency, distance and number of errors (other holes visited) that was required for the mouse to successfully navigate to the escape box. […]

mitochondrial CA = settings: reference (16); cited from earlier work
[3] = ATZ 10 μM added to the peptides

Structure (SMILES)	loss of ΔΨ (SH-SY5Y neuronal cells; [3])	ΔΨ after pre-aggregated Aβ (SH-SY5Y neuronal cells)	loss of ΔΨ [1, 3]	ΔΨ after pre-aggregated Aβ [1]	apoptosis in response to Aβ (M059K Glioma cells)	caspase 9 activation [2]	behavioral phenotypes (Barnes maze) (TgSwDI mice)	distance traveled, probe trial (TgSwDI mice)	mistakes, probe trial (TgSwDI mice)	distance traveled in trial 10 (last trial) (TgSwDI mice)	activity on mitochondrial CA (mitochondrial CA)	apoptotic phenotype caused by the Aβ peptides (M059K Glioma cells; 100 μM MTZ, Aβ42 10 μM or Aβ40-Q22 50 μM, 3 days)	Aβ-mediated increase in fragmented nucleosomes (M059K Glioma cells; 300 μM MTZ, Aβ42 10 μM or Aβ40-Q22 50 μM, 3 days)	caspase 9 over-activation ([2]; 100 or 300 μM MTZ, 10 μM Aβ42, 24 hours)	caspase 9 activity, drug alone ([2]; MTZ alone in absence of Aβ)
CC(=O)Nc1nnc(S(N)(=O)=O)s1 [ATZ, acetazolamide]	prevent loss of ΔΨ	rescue ΔΨ to values similar to those observed under control conditions	prevent loss of ΔΨ	rescue ΔΨ to values similar to those observed under control conditions	prevented	protective effect	ameliorate behavioral phenotypes	not significantly higher than WT mice	not significantly higher than WT mice	not significantly higher than WT mice	high activity				
CC(=O)/N=c1/sc(S(N)(=O)=O)nn1C [MTZ, methazolamide]		rescue ΔΨ to values similar to those observed under control conditions		rescue ΔΨ to values similar to those observed under control conditions	prevented	protective effect	ameliorate behavioral phenotypes	not significantly higher than WT mice	not significantly higher than WT mice	not significantly higher than WT mice	high activity	completely reverted the apoptotic phenotype	completely prevented	completely inhibited	did not have any effect
